In patent publication US20230398130A1, “METHODS AND COMPOSITIONS FOR DIFFERENTIATING STEM CELLS” (Massachusetts Institute of Technology, priority 2020, published 2023):

Legend:
ISC-enriched organoids [1] = assay: Primary screen, 384-well 2.5-D organoid differentiation (ENR+CD, 6 days): basal lysozyme secretion (LYZ.NS); type: cell-based, murine; settings: for Dose.FC.LYZ.NS (log 2 fold change, basal lysozyme secretion): vs plate median
Description: (§1) High-throughput screening.

ISC-enriched organoids [2] = assay: Primary screen, 384-well 2.5-D organoid differentiation (ENR+CD, 6 days): carbachol-induced lysozyme secretion (LYZ.S); type: cell-based, murine; settings: vs plate median
Description: as §1

ISC-enriched organoids [3] = assay: Primary screen, 384-well 2.5-D organoid differentiation (ENR+CD, 6 days, Target Selective Inhibitor Library, vs whole-plate median): ATP (CellTiter-Glo 3D, CTG); settings: for Dose.FC.CTG (log 2 fold change, ATP): vs plate median

| Structure (SMILES) | Z.LYZ.NS (standard z score) (ISC-enriched organoids [1]; dose 0.08 uM) | Dose.FC.LYZ.NS (log 2 fold change, basal lysozyme secretion) (ISC-enriched organoids [1]; dose 0.08 uM) | Z.LYZ.NS (standard z score) (ISC-enriched organoids [1]; dose 0.40 uM) | Dose.FC.LYZ.NS (log 2 fold change, basal lysozyme secretion) (ISC-enriched organoids [1]; dose 0.40 uM) | Z.LYZ.NS (standard z score) (ISC-enriched organoids [1]; dose 2.00 uM) | Dose.FC.LYZ.NS (log 2 fold change, basal lysozyme secretion) (ISC-enriched organoids [1]; dose 2.00 uM) | Z.LYZ.NS (standard z score) (ISC-enriched organoids [1]; dose 10.00 uM) | Dose.FC.LYZ.NS (log 2 fold change, basal lysozyme secretion) (ISC-enriched organoids [1]; dose 10.00 uM) | Dose.FC.LYZ.S (log 2 fold change, carbachol-induced lysozyme secretion) (ISC-enriched organoids [2]; dose 0.08 uM) | Dose.FC.LYZ.S (log 2 fold change, carbachol-induced lysozyme secretion) (ISC-enriched organoids [2]; dose 0.40 uM) | Dose.FC.LYZ.S (log 2 fold change, carbachol-induced lysozyme secretion) (ISC-enriched organoids [2]; dose 2.00 uM) | Dose.FC.LYZ.S (log 2 fold change, carbachol-induced lysozyme secretion) (ISC-enriched organoids [2]; dose 10.00 uM) | Z.CTG (standard z score) (ISC-enriched organoids [3]; dose 0.08 uM) | Dose.FC.CTG (log 2 fold change, ATP) (ISC-enriched organoids [3]; dose 0.08 uM) | Z.CTG (standard z score) (ISC-enriched organoids [3]; dose 0.40 uM) | Dose.FC.CTG (log 2 fold change, ATP) (ISC-enriched organoids [3]; dose 0.40 uM) | Z.CTG (standard z score) (ISC-enriched organoids [3]; dose 2.00 uM) | Dose.FC.CTG (log 2 fold change, ATP) (ISC-enriched organoids [3]; dose 2.00 uM) | Z.CTG (standard z score) (ISC-enriched organoids [3]; dose 10.00 uM) | Dose.FC.CTG (log 2 fold change, ATP) (ISC-enriched organoids [3]; dose 10.00 uM) |
| --- | --- | --- | --- | --- | --- | --- | --- | --- | --- | --- | --- | --- | --- | --- | --- | --- | --- | --- | --- | --- |
| c1ccc(NCc2ccc(CNc3ccccn3)cc2)nc1 [WZ811] | 1.337 | 0.154 | 0.162 | 0.019 | 0.815 | 0.094 | 0.045 | 0.005 | 0.296 | 0.007 | 0.074 | 0.019 | 0.334 | 0.140 | −0.082 | −0.034 | 0.184 | 0.077 | 0.104 | 0.044 |
| CCC(=O)Nc1cccc(Oc2nc(Nc3ccc(N4CCN(C)CC4)cc3OC)ncc2Cl)c1 [WZ4003] | 0.644 | 0.074 | −0.359 | −0.041 | −0.151 | −0.017 | −0.850 | −0.098 | 0.117 | −0.034 | −0.035 | −0.142 | 0.896 | 0.375 | 0.413 | 0.173 | 0.180 | 0.076 | −0.043 | −0.018 |
| Cc1cc(-c2ccc(CC(=O)Nc3ccc(-c4cccnc4)cc3)cc2)ccn1 [Wnt-C59 (C59)] | −1.424 | −0.163 | −1.588 | −0.182 | −1.724 | −0.198 | −1.666 | −0.191 | −0.242 | −0.281 | −0.313 | −0.301 | −1.366 | −0.572 | −1.461 | −0.611 | −1.498 | −0.627 | −1.465 | −0.613 |
| COCC[n+]1c2c(n(Cc3cnccn3)c1C)C(=O)c1ccccc1C2=O.[Br-] [YM155 (Sepantronium Bromide)] | 0.995 | 0.114 | −0.266 | −0.031 | −0.714 | −0.082 | −0.839 | −0.096 | 0.172 | −0.039 | −0.137 | −0.210 | 0.531 | 0.222 | −0.198 | −0.083 | −1.100 | −0.460 | −2.316 | −0.970 |
| C[C@H](NC(=O)Cc1cc(F)cc(F)c1)C(=O)N[C@@H]1C(=O)N(C)c2ccccc2-c2ccccc21 [YO-01027] | 0.443 | 0.051 | 0.739 | 0.085 | −0.699 | −0.080 | −1.369 | −0.157 | 0.105 | −0.058 | −0.020 | −0.184 | 0.528 | 0.221 | −1.135 | −0.475 | −1.363 | −0.571 | −2.464 | −1.032 |
| Cc1cc(C)nc(NS(=O)(=O)c2ccc(NC(=S)NC(=O)COc3ccc(Br)cc3Cl)cc2)n1 [ZCL278] | −0.729 | −0.084 | −0.325 | −0.037 | 0.218 | 0.025 | 0.130 | 0.015 | −0.107 | 0.077 | −0.079 | −0.080 | −2.303 | −0.964 | 0.044 | 0.018 | −0.545 | −0.228 | −0.247 | −0.104 |
| COc1cc2ncnc(Nc3ccc(Cl)cc3F)c2cc1OC [ZM 306416] | 0.912 | 0.105 | −1.942 | −0.223 | −2.531 | −0.291 | −2.395 | −0.275 | 0.006 | −0.288 | −0.403 | −0.431 | −0.190 | −0.080 | −1.155 | −0.483 | −3.135 | −1.312 | −3.559 | −1.490 |
